According to patent US9566312B2, “Cyclic peptides and use as medicines” (priority 2012, dated 2017):
Where two headings read alike, the source gives them in different places. Starred links: 1 amine or outer side, 2 acyl side, 3 side chain; linkers in the order of their positions; H or OH if unused. Non-standard residues stand in square brackets, D forms with d. Residues, ends and D or L forms follow the SMILES beside them. X25 = CCN1CCO[C@H](COC[C@@H](C)[C@@H](C(=O)[*:2])N(C)[*:1])C1; X22 = C[C@H](CN1CCN(C2CCC2)CC1)[C@@H](C(=O)[*:2])N(C)[*:1]; X63 = C[C@H](CN1CCN(C2COC2)CC1)[C@@H](C(=O)[*:2])N(C)[*:1]; X79 = COCCN1CCN(CC[C@@H](C)[C@@H](C(=O)[*:2])N(C)[*:1])CC1; X19 = COCCN1CCN(C[C@H](C)[C@@H](C(=O)[*:2])N(C)[*:1])CC1; X8 = COCCN1CCN(C[C@@H](C)[C@@H](C(=O)[*:2])N(C)[*:1])CC1; X21 = CCN1CCN(C[C@@H](C)[C@@H](C(=O)[*:2])N(C)[*:1])CC1; X14 = C[C@H](CN1CCN(C)CC1)[C@@H](C(=O)[*:2])N(C)[*:1]; X18 = C[C@H](CCC(C)(C)O)[C@@H](C(=O)[*:2])N(C)[*:1]; MeBmt = C/C=C/C[C@@H](C)[C@@H](O)[C@H](NC)C(=O)O; X15 = COCC(COC)[C@@H](C(=O)[*:2])N(C)[*:1]; NMeL = CN[C@@H](CC(C)C)C(=O)O; NMeV = CN[C@H](C(=O)O)C(C)C; dNMeA = CN[C@H](C)C(=O)O; Abu = CC[C@H](N)C(=O)O

Legend:
CypF = CypF (Homo sapiens (Human), UniProt P30405); experiment: Inhibitor binding to cyclophilin proteins by SPR, CypF; settings: 1:1 binding model
Procedure, shortened: (§1)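 Mono-biotinylated avi-tagged cyclophilins were captured on a Biotin CAPture chip and compound injected by single-cycle kinetics in 10 mM HEPES pH 7.4, 150 mM NaCl, 0.05% P20, 3% DMSO. Contact 1 min per concentration at 50 μL/min, 10 min final dissociation; 1:1 model fit gave kon, koff, KD.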

cyclophilin B (CypB) = cyclophilin B (CypB) (Homo sapiens (Human), UniProt P23284); experiment: Inhibitor binding to cyclophilin proteins by SPR, CypB; design: unit not given here; settings: 1:1 binding model
Procedure, shortened: as §1

[1] = tested on: genotype 1b subgenomic HCV replicon in Huh7.5 cells; assay type: cell-based, hepatitis C virus; settings: read-out: RPLN-1b IC50
Procedure, shortened: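 Replicon inhibition read as renilla luciferase signal versus DMSO controls after 72 h incubation, in Huh7.5 cells harbouring a genotype 1b subgenomic replicon; medium phenol red-free DMEM lacking G418. CC50 determined in parallel via Cell Titer-Glo.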

CYP3A4 = CYP3A4 (Homo sapiens (Human), UniProt P08684); experiment: Time-dependent inhibition of CYP3A4;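 also: Two-step in vitro assay, kobs derived from residual CYP3A4 activity versus preincubation time per concentration, then kinact and KI by nonlinear fit of kobs against concentration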
Procedure: Method 5: Measuring Time-Dependent Inhibition of CYP3A4
The CYP3A4 time dependent inhibition potential of various inhibitors was determined by a two step in vitro assay. […] The inactivation rate constant (kobs) was obtained by plotting the activity remaining over pre-incubation time for each concentration of compound. The maximal inactivation rate (kinact) and the inactivation potency (KI) were calculated by non linear regression analysis of the inactivation rate constant (kobs) versus compound concentrations [I] curve according to the equation kobs=[kinact·[I]]/[KI+[I]]

[2] = target: organic anion transporting polypeptide 1B1 (OATP1B1) (Homo sapiens (Human), UniProt Q9Y6L6); experiment: OATP assay in CHO-OATP1B1 cells;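 also: inhibition of probe substrate uptake into the cells, ten minutes exposure, accumulated substrate read by fluorescence once cells were lysed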
[3] = tested on: peripheral blood mononuclear cells (PBMC); experiment: Anti-proliferative or immunosuppressive activity, BrdU incorporation in PHA-stimulated PBMC; assay type: cell-based; settings: PHA 3 μg/ml, 60 hour compound treatment; read-out: EMV PBMC IC50
Procedure, shortened: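 BrdU ELISA read-out of DNA synthesis in freshly isolated PBMCs (two donors, 30,000 cells/well, X-VIVO 15). T-cell proliferation triggered with phytohemagglutinin at 3 μg/ml.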

cyclophilin A (CypA) = cyclophilin A (CypA) (Homo sapiens (Human), UniProt P62937); experiment: Inhibitor binding to cyclophilin proteins by SPR, CypA; design: unit not given here; settings: 1:1 binding model;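 also: Single-cycle kinetics on a Biacore T200, compound injected at several concentrations for 1 min each at 50 µL/min, then 10 min dissociation, in HEPES pH 7.4 buffer with 3% DMSO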
[4] = genotype 1b replicon, 72 h incubation

organic anion transporting polypeptide 1B1 (OATP1B1), sequence (Q9Y6L6 whole entry): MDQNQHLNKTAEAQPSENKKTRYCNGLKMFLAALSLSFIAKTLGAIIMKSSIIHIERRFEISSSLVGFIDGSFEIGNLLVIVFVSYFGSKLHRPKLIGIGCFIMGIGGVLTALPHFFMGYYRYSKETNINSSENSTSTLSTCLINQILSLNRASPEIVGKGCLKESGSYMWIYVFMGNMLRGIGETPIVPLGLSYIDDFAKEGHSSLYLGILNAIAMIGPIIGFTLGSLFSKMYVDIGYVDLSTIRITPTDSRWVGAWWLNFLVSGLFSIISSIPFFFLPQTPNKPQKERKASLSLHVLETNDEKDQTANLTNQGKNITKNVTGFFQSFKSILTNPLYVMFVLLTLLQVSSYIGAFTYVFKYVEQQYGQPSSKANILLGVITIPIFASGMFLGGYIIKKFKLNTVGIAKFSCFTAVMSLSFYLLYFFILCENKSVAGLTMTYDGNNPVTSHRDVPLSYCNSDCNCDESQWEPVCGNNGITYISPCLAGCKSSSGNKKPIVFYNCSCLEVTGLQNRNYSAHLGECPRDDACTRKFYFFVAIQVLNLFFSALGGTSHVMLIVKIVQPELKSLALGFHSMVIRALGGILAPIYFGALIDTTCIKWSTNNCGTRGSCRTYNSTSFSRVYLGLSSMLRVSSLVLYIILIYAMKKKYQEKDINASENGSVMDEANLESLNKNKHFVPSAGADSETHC
CypF, sequence (P30405 30-207): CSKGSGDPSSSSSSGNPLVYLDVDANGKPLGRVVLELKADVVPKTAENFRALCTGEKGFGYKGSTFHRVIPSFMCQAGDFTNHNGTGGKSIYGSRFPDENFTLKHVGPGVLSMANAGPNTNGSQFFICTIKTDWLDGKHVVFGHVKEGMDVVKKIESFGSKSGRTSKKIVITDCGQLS
CYP3A4, sequence (P08684 whole entry): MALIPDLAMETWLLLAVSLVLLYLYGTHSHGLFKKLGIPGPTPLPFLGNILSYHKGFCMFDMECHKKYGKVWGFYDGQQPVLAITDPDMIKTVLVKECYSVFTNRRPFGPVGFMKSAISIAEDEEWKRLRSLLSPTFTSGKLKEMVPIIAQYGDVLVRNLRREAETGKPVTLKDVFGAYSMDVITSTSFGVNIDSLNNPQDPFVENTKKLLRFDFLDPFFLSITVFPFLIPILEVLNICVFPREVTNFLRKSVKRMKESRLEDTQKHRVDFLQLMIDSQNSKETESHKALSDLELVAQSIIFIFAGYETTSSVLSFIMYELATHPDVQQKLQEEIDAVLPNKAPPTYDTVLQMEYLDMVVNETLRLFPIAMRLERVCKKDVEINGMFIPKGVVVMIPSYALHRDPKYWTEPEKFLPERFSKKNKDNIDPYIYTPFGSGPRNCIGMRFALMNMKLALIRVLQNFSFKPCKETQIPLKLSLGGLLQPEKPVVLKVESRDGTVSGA
cyclophilin B (CypB), sequence (P23284 34-216): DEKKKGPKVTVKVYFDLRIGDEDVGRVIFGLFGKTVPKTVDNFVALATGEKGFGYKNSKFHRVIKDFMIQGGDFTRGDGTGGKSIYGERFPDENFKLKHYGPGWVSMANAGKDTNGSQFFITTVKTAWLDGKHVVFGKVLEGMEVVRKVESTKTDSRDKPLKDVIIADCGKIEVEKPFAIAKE
cyclophilin A (CypA), sequence (P62937 whole entry): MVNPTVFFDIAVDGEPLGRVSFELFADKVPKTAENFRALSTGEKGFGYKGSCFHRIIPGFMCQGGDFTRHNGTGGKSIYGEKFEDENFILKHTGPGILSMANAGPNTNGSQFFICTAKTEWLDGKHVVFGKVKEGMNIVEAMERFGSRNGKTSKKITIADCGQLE

| SMILES | CypF Kd (CypF) | CypB Kd (cyclophilin B (CypB)) | IC50 [1, 4] | Ki (CYP3A4) | IC50 [2] | IC50 [3] | CypA Kd (cyclophilin A (CypA)) | IC50 [1] | KI (inactivation) (CYP3A4) | NIM TDI kinact/Ki (CYP3A4; probe substrate midazolam) |
| --- | --- | --- | --- | --- | --- | --- | --- | --- | --- | --- |
| C/C=C/C[C@@H](C)[C@@H](O)[C@H]1C(=O)N[C@@H](CC)C(=O)N(C)[C@H](C)C(=O)N(C)[C@@H](C(COC)COC)C(=O)N[C@@H](C(C)C)C(=O)N(C)[C@@H](CC(C)C)C(=O)N[C@@H](C)C(=O)N[C@H](C)C(=O)N(C)[C@@H](CC(C)C)C(=O)N(C)[C@@H](CC(C)C)C(=O)N(C)[C@@H](C(C)C)C(=O)N1C [Compound 2.11, 3-[D-Ala]-4-[(S)-4-methoxy-3-(methoxymethyl)-2-(methylamino)butanoyl]-cyclosporin] (cyclo(A[dA][NMeL][NMeL][NMeV][MeBmt][Abu][dNMeA][X15]V[NMeL])) | 0.0012 µM | 1.3 | 0.058 µM | > 50 µM | 2.6 µM | 7.9 µM | 1.9 |  |  |  |
| C/C=C/C[C@@H](C)[C@@H](O)[C@H]1C(=O)N[C@@H](CC)C(=O)N(C)[C@H](C)C(=O)N(C)[C@@H]([C@H](C)CN2CCN(C)CC2)C(=O)N[C@@H](C(C)C)C(=O)N(C)[C@@H](CC(C)C)C(=O)N[C@@H](C)C(=O)N[C@H](C)C(=O)N(C)[C@@H](CC(C)C)C(=O)N(C)[C@@H](CC(C)C)C(=O)N(C)[C@@H](C(C)C)C(=O)N1C [Compound 2.5.29, 3-[D-Ala]-4-[(2S,3R)-3-methyl-2-(methylamino)-4-(4-methylpiperazin-1-yl)butanoyl]-cyclosporin] (cyclo(A[dA][NMeL][NMeL][NMeV][MeBmt][Abu][dNMeA][X14]V[NMeL])) | 0.0006 µM | 0.7 | 0.056 µM | > 50 µM | 7.9 µM | 12.2 µM | 1.5 |  |  |  |
| C/C=C/C[C@@H](C)[C@@H](O)[C@H]1C(=O)N[C@@H](CC)C(=O)N(C)[C@H](C)C(=O)N(C)[C@@H]([C@H](C)CN2CCN(CC)CC2)C(=O)N[C@@H](C(C)C)C(=O)N(C)[C@@H](CC(C)C)C(=O)N[C@@H](C)C(=O)N[C@H](C)C(=O)N(C)[C@@H](CC(C)C)C(=O)N(C)[C@@H](CC(C)C)C(=O)N(C)[C@@H](C(C)C)C(=O)N1C [Compound 2.5.13, 3-[D-Ala]-4[(2S,3R)-2-Amino-4-(4-ethyl-piperazin-1-yl)-butanoyl]-cyclosporin] (cyclo(A[dA][NMeL][NMeL][NMeV][MeBmt][Abu][dNMeA][X21]V[NMeL])) | 0.0005 µM | 0.8 | 0.05 µM | > 50 µM | 4.56 µM | 5.3 µM | 0.9 |  |  |  |
| C/C=C/C[C@@H](C)[C@@H](O)[C@H]1C(=O)N[C@@H](CC)C(=O)N(C)[C@H](C)C(=O)N(C)[C@@H]([C@H](C)CN2CCN(C3COC3)CC2)C(=O)N[C@@H](C(C)C)C(=O)N(C)[C@@H](CC(C)C)C(=O)N[C@@H](C)C(=O)N[C@H](C)C(=O)N(C)[C@@H](CC(C)C)C(=O)N(C)[C@@H](CC(C)C)C(=O)N(C)[C@@H](C(C)C)C(=O)N1C [Compound 2.5.11] (cyclo(A[dA][NMeL][NMeL][NMeV][MeBmt][Abu][dNMeA][X63]V[NMeL])) | 0.001 µM | 1.2 | 0.05 µM | > 50 µM | 1.17 µM | 13.9 µM | 1.6 |  |  |  |
| C/C=C/C[C@@H](C)[C@@H](O)[C@H]1C(=O)N[C@@H](CC)C(=O)N(C)[C@H](C)C(=O)N(C)[C@@H]([C@H](C)CN2CCN(CCOC)CC2)C(=O)N[C@@H](C(C)C)C(=O)N(C)[C@@H](CC(C)C)C(=O)N[C@@H](C)C(=O)N[C@H](C)C(=O)N(C)[C@@H](CC(C)C)C(=O)N(C)[C@@H](CC(C)C)C(=O)N(C)[C@@H](C(C)C)C(=O)N1C [Compound 2.5.10, 3-[D-Ala]-4[(2S,3R)-2-Amino-4-[4-(2-methoxy-ethyl)-piperazin-1-yl]-3-methyl-butanoyl]-cyclosporin] (cyclo([MeBmt][Abu][dNMeA][X8]V[NMeL]A[dA][NMeL][NMeL][NMeV])) | 0.0009 µM | 1.2 |  |  | 6.1 µM | 16.8 µM | 1.2 | 0.039 µM | > 50 µM |  |
| C/C=C/C[C@@H](C)[C@@H](O)[C@H]1C(=O)N[C@@H](CC)C(=O)N(C)[C@H](C)C(=O)N(C)[C@@H]([C@H](C)CCN2CCN(CCOC)CC2)C(=O)N[C@@H](C(C)C)C(=O)N(C)[C@@H](CC(C)C)C(=O)N[C@@H](C)C(=O)N[C@H](C)C(=O)N(C)[C@@H](CC(C)C)C(=O)N(C)[C@@H](CC(C)C)C(=O)N(C)[C@@H](C(C)C)C(=O)N1C [Compound 2.18.3, 3-[D-Ala]-4-[(2S,3R)-5-(4-(2-methoxyethyl)piperazin-1-yl)-3-methyl-2-(methylamino)pentanoyl]-cyclosporin] (cyclo(A[dA][NMeL][NMeL][NMeV][MeBmt][Abu][dNMeA][X79]V[NMeL])) | 0.0005 µM | 0.6 | 0.073 µM | > 50 µM | 9.1 µM | 11.1 µM | 0.9 |  |  |  |
| C/C=C/C[C@@H](C)[C@@H](O)[C@H]1C(=O)N[C@@H](CC)C(=O)N(C)[C@H](C)C(=O)N(C)[C@@H]([C@@H](C)CN2CCN(CCOC)CC2)C(=O)N[C@@H](C(C)C)C(=O)N(C)[C@@H](CC(C)C)C(=O)N[C@@H](C)C(=O)N[C@H](C)C(=O)N(C)[C@@H](CC(C)C)C(=O)N(C)[C@@H](CC(C)C)C(=O)N(C)[C@@H](C(C)C)C(=O)N1C [Compound 2.17.4, 3-[D-Ala]-4[(2S,3S)-2-Amino-4-[4-(2-methoxy-ethyl)-piperazin-1-yl]-3-methyl-butanoyl]-cyclosporin] (cyclo(A[dA][NMeL][NMeL][NMeV][MeBmt][Abu][dNMeA][X19]V[NMeL])) | 0.0003 µM | 0.5 | 0.031 µM | > 50 µM | 3.2 µM | 2.7 µM | 0.6 |  |  |  |
| C/C=C/C[C@@H](C)[C@@H](O)[C@H]1C(=O)N[C@@H](CC)C(=O)N(C)[C@H](C)C(=O)N(C)[C@@H]([C@H](C)CN2CCN(C3CCC3)CC2)C(=O)N[C@@H](C(C)C)C(=O)N(C)[C@@H](CC(C)C)C(=O)N[C@@H](C)C(=O)N[C@H](C)C(=O)N(C)[C@@H](CC(C)C)C(=O)N(C)[C@@H](CC(C)C)C(=O)N(C)[C@@H](C(C)C)C(=O)N1C [Compound 2.5.14, 3-[D-Ala]-4[(2S,3R)-2-Amino-4-(4-cyclobutyl-piperazin-1-yl)-butanoyl]-cyclosporin] (cyclo(A[dA][NMeL][NMeL][NMeV][MeBmt][Abu][dNMeA][X22]V[NMeL])) | 0.0005 µM | 0.7 | 0.032 µM | > 50 µM | 5.2 µM | 8.1 µM | 1.0 |  |  |  |
| C/C=C/C[C@@H](C)[C@@H](O)[C@H]1C(=O)N[C@@H](CC)C(=O)N(C)[C@H](C)C(=O)N(C)[C@@H]([C@H](C)CCC(C)(C)O)C(=O)N[C@@H](C(C)C)C(=O)N(C)[C@@H](CC(C)C)C(=O)N[C@@H](C)C(=O)N[C@H](C)C(=O)N(C)[C@@H](CC(C)C)C(=O)N(C)[C@@H](CC(C)C)C(=O)N(C)[C@@H](C(C)C)C(=O)N1C [Compound 2.12, 3-[D-Ala]-4-[(2S,3R)-6-hydroxy-3,6-dimethyl-2-(methylamino)heptanoyl]-cyclosporin] (cyclo(A[dA][NMeL][NMeL][NMeV][MeBmt][Abu][dNMeA][X18]V[NMeL])) | 0.0011 µM | 1.1 |  | > 50 µM | 2.2 µM | 7.1 µM | 2.1 | 0.08 µM |  |  |
| C/C=C/C[C@@H](C)[C@@H](O)[C@H]1C(=O)N[C@@H](CC)C(=O)N(C)[C@H](C)C(=O)N(C)[C@@H]([C@H](C)COC[C@@H]2CN(CC)CCO2)C(=O)N[C@@H](C(C)C)C(=O)N(C)[C@@H](CC(C)C)C(=O)N[C@@H](C)C(=O)N[C@H](C)C(=O)N(C)[C@@H](CC(C)C)C(=O)N(C)[C@@H](CC(C)C)C(=O)N(C)[C@@H](C(C)C)C(=O)N1C [Compound 2.20.1, 3-[D-Ala]-4-[(2S,3S)-4-(((S)-4-ethylmorpholin-2-yl)methoxy)-3-methyl-2-(methylamino)butanoyl]-cyclosporin] (cyclo(A[dA][NMeL][NMeL][NMeV][MeBmt][Abu][dNMeA][X25]V[NMeL])) | 0.0005 µM | 0.7 |  |  | 1.9 µM |  | 0.7 |  |  | 6.7 M⁻¹ s⁻¹ |
